{"source": "patent US20120040009A1", "about": "“PARTICULATE PHARMACEUTICAL COMPOSITION WITH AN OPIOID AND AN OPIOID ANTAGONIST” (priority 2009, published 2012)", "conditions": "non-opioid-dependent patients; intravenous administration of 200 mg morphine"}
{"molecule": "C=CCN1CC[C@]23c4c5ccc(O)c4O[C@H]2C(=O)CC[C@@]3(O)[C@H]1C5", "note": "[naloxone, (5R,9R,13S,14S)-17-allyl-3,14-dihydroxy-4,5-epoxymorphinan-6-on]", "values": [{"measurement": "naloxone sufficient to trigger discrete withdrawal symptoms", "result": 0.4, "unit": "mg"}]}
